These results are taken from patent publication US11013726B2 (Arbutus Biopharma Corporation, priority 2016, dated 2021).

As usually defined, the EC50 is the midpoint of the concentration-response curve.

In one data set the test system is HBV. In words: HBV production assay. Particulars: Hepatitis B virus, 144 h; HepG2.2.15 cells, 6 days, HBV DNA in supernatant by qPCR. In kind it is cell-based. How it is done: HepG2.2.15 cells were maintained and seeded as described above. After administration of test compounds for 6 days, supernatant was collected and clarified by low speed centrifugation. HBV DNA was released from virion in the supernatant by incubating in lysis buffer (Roche, Catalog #07248431001). HBV DNA levels were quantified by qPCR/TaqMan assay. The nucleoside analog Entecavir (ETV) was used as a control to determine inhibition of HBV virion production in the supernatant. Table 4 illustrates EC50 values obtained by the HBV production assay for selected compounds.
(Real-time PCR tracks product formation cycle by cycle.)

The next data set has as its system isolated heart. The experiment in a line: Langendorff assay. To be noted: any of the concentrations tested. The text has this: (§1) The compounds of the invention disclosed in the present application were screened to evaluate their potency and toxicity profiles. Several compounds having desirable potency and toxicity profiles were identified in these screens.
Data set [1] relates to HBsAg. The experiment in a line: HBsAg assay. It counts as cell-based, hepatitis B virus. To be noted: Hepatitis B virus, HepG2.2.15, 144 h, read-out: sAg EC50, μM, HepG2.2.15 cells, day 6. In a few lines:
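HepG2.2.15 cells were treated with serially diluted compounds (0.5% DMSO), with medium and compound renewed after 2-3 days. Secreted HBsAg measured at day 6 by chemiluminescence immunoassay; EC50 from dose-response curves. Viability assessed in parallel by CellTiter-Glo.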

Data set [2] in a line: clearance from blood plasma in dogs. In kind it is in vivo.
Description: as §1

Data set [3] has as its system HBsAg. In words: In vitro combination study, HBsAg CLIA, MacSynergy II. In kind it is cell-based, hepatitis B virus. Also noted: MacSynergy volume: unit not given here. Particulars: for Additive % Inhibition (HBsAg) versus negative control / Avg % Inhibition (HBsAg) versus negative control: LNP-1 0.0025, 0.00079, 0.00025, 7.9E−05, 2.5E−05, 0 μM; for Additive % Inhibition versus negative control / MacSynergy volume: LNP-2 0 μM; for MacSynergy volume: 99.99% confidence interval. How it is done:
In vitro combination studies were conducted using the method of Prichard & Shipman, 1990, Antiviral Res. 14(4-5):181-205, and Prichard, et al., MacSynergy II). The HepG2.2.15 cell culture system is a cell line derived from human hepatoblastoma HepG2 cells, that have been stably transfected with the adw2-subtype HBV genome (Sells, et al., 1987, Proc. Natl. Acad. Sci. U.S.A 84:1005-1009). HepG2.2.15 cells secrete Dane-like viral particles, produce HBV DNA, and produce the viral proteins, HBeAg and HBsAg.
Non-limiting examples of HBV RNA destabilizers are Compound A and Compound B. The EC50 values of these agents are shown in Table 12. Although inhibition of HBV DNA, RNA and proteins can be determined in the presence of the compounds of the invention and LNPs (both referred to herein as “agents”), the assay that can quantitatively measure the level of HBsAg was used in this study. To test the agent combinations, HepG2.2.15 (30,000 cells/well) were plated in 96 well tissue-culture treated microtiter plates in DMEM+L-Glutamine medium supplemented with 1% penicillin-streptomycin, 20 μg/mL geneticin (G418), 10% fetal bovine serum, and incubated in a humidified incubator at 37° C. and 5% CO2 overnight. The next day, the cells were replenished with fresh medium followed by the addition of compound of the invention (dissolved in 100% DMSO), and LNP (dissolved in 100% RPMI medium). The agents were added to cells in a checkerboard fashion. The microtiter cell plates were incubated for a total duration of 6 days in a humidified incubator at 37° C. and 5% CO2. On the 3rd day of incubation, the cells were replenished with fresh medium and agents. The serial dilutions spanned concentration ranges respective to the EC50 value of each agent, with the final DMSO concentration of the assay being 0.5%. In addition to combination testing of the agents in a checkerboard fashion, the compound and LNP were also tested alone.
Untreated positive control samples (0.5% DMSO in media) were included on each plate in multiple wells. Following a 6 day-incubation, media was removed from treated cells for use in an HBsAg chemiluminescence immunoassay (CLIA) (Autobio Diagnostics, Cat No. CL0310-2). An HBsAg standard curve was generated to verify that the levels of HBsAg quantification were within the detection limits of the assay. The remaining inhibitor-treated cells were assessed for cytotoxicity by determination of the intracellular adenosine triphosphate (ATP) using a Cell-Titer Glo reagent (Promega) as per manufacturers instructions and by microscopic analysis of the cells throughout the duration of inhibitor treatment. Cell viability was calculated as a percentage of the untreated positive control wells.
The plates were read using an EnVision multimode plate reader (PerkinElmer Model 2104). […] The RLU data from the single agent treated cells were analyzed using XL-Fit module in Microsoft Excel to determine EC50 values using a 4-parameter curve fitting algorithm.

In the data set with HBV, `COc1cc2c(cc1Cl)-c1cc(=O)c(C(=O)O)cn1C(C(C)C)CO2` (stereo not drawn) showed a 50% effective concentration (EC50) of 0.077 µM.

For the compound `COc1cc2c(cc1Cl)-c1cc(=O)c(C(=O)O)cn1[C@H](C(C)C)CO2`, the EC50 in the data set on HBV is 0.03 µM.

As for `COCCCOc1cc2c(nc1OC)-c1cc(=O)c(C(=O)O)cn1[C@H](C(C)C)C2` (single isomer, unassigned) [Example 22], in the data set with isolated heart, the “effect on measured electrocardiogram parameters” value is reported as “no effect on any of the measured electrocardiogram parameters”. Also, the EC50 with HBsAg [1] stood at 0.002 µM. In addition, in data set [2], the “clearance from blood plasma” value is reported as “cleared relatively slowly”.

On to `COCCCOc1cc2c(cc1Cl)-c1cc(=O)c(C(=O)O)cn1[C@H](C(C)C)CO2` [Compound B], for which the “Additive % Inhibition (HBsAg) versus negative control” value in the data set on HBsAg [3] (Compound B 0.0002 μM) was 19.99%; in the data set on HBsAg [3] (Compound B 0.0006 μM), 22.24%; in the data set on HBsAg [3] (Compound B 0.002 μM), 28.73%; in the data set on HBsAg [3] (Compound B 0.006 μM) it was 39.16%; with HBsAg [3] (Compound B 0.02 μM), 61.93%; in the data set with HBsAg [3] (Compound B 0.06 μM) it was 80.51%. Further, the entries for the “Additive % Inhibition (HBsAg) versus negative control” value with HBsAg [3] (Compound B 0.20 μM), in the data set with HBsAg [3] (Compound B 0.63 μM) and with HBsAg [3] (Compound B 2 μM) were 89.95%, 92.6% and 93.51%, respectively. In addition, the “Avg % Inhibition (HBsAg) versus negative control” value in the data set with HBsAg [3] (Compound B 0.0002 μM) came to 19.99%; in the data set on HBsAg [3] (Compound B 0.0006 μM) it was 22.24%; with HBsAg [3] (Compound B 0.002 μM) it was 28.73%; in the data set with HBsAg [3] (Compound B 0.006 μM) it was 39.16%; with HBsAg [3] (Compound B 0.02 μM), 61.93%; in the data set on HBsAg [3] (Compound B 0.06 μM), 80.51%. Moreover, the “Avg % Inhibition (HBsAg) versus negative control” value was 89.95% with HBsAg [3] (Compound B 0.20 μM), 92.6% with HBsAg [3] (Compound B 0.63 μM) and 93.51% with HBsAg [3] (Compound B 2 μM). The “Additive % Inhibition versus negative control” value with HBsAg [3] (Compound B 0.0002 μM) is listed as 16.15%; in the data set with HBsAg [3] (Compound B 0.0006 μM), 18.39%; in the data set on HBsAg [3] (Compound B 0.002 μM), 21.16%; in the data set with HBsAg [3] (Compound B 0.006 μM), 31.66%; in the data set on HBsAg [3] (Compound B 0.02 μM), 51.93%; in the data set with HBsAg [3] (Compound B 0.06 μM), 74.92%. Further, the “Additive % Inhibition versus negative control” value turned out to be 86.86% in the data set on HBsAg [3] (Compound B 0.20 μM), 91.2% with HBsAg [3] (Compound B 0.63 μM) and 92.52% in the data set on HBsAg [3] (Compound B 2 μM). Further, the MacSynergy volume in the data set on HBsAg [3] (Compound B 0.0002 μM), in the data set with HBsAg [3] (Compound B 0.0006 μM), with HBsAg [3] (Compound B 0.002 μM), in the data set on HBsAg [3] (Compound B 0.006 μM), with HBsAg [3] (Compound B 0.02 μM) and with HBsAg [3] (Compound B 0.06 μM) was 0 throughout. Moreover, the MacSynergy volume in the data set on HBsAg [3] (Compound B 0.20 μM), in the data set with HBsAg [3] (Compound B 0.63 μM) and with HBsAg [3] (Compound B 2 μM) was 0 in each case.

In the data set with HBV, `CC(C)(C)C1Cc2cc3c(cc2-c2cc(=O)c(C(=O)O)cn21)OCCCO3` (stereo not drawn) [drawing 612] gave an EC50 of 0.007 µM.

The compound `COCCCOc1cc2c(cc1Cl)-c1cc(=O)c(C(=O)O)cn1[C@H](C(C)C)CO2` [drawing 614] showed an EC50 with HBV of 0.009 µM.

With `COCCCOc1cc2c(nc1OC)-c1cc(=O)c(C(=O)O)cn1[C@H](C(C)C)C2` [drawing 615], the EC50 in the data set on HBV is 0.0004 µM.

As for `CC(C)[C@@H]1COc2cc(OCCCO)c(Cl)cc2-c2cc(=O)c(C(=O)O)cn21` [drawing 616], in the data set on HBV, the EC50 is 0.007 µM.

In the data set with HBV, `CC(C)[C@@H]1COc2cc(OCCCCO)c(Cl)cc2-c2cc(=O)c(C(=O)O)cn21` [drawing 617] showed an EC50 of 0.02 µM.

In the case of `COCCOc1cc2c(cc1Cl)-c1cc(=O)c(C(=O)O)cn1C(C(C)C)CO2` (stereo not drawn) [drawing 618], the EC50 with HBV turned out to be 0.046 µM.

For the compound `COc1cc2c(nc1OC)-c1cc(=O)c(C(=O)O)cn1C(C(C)C)C2` (stereo not drawn) [drawing 619], in the data set on HBV, the response was half-maximal at 0.002 µM (EC50).
